Assay results as given in US7504517B2, “Kv1.5 potassium channel inhibitors” (Wyeth, priority 2006, dated 2009).

biological target: T1, Kv1.5 (Homo sapiens, UniProt P22460); assay: Kv1.5 Patch Clamp EP; type: cell-based; conditions: 1.0 μM, single point; whole cell patch clamp, Kv1.5 stably over expressed in HEK or LTK- cells
T1 construct: expressed in transfected cells; host or cells: HEK or LTK- cells
Procedure: The external solution is standard Tyrodes solution. […] Inhibition was measured at the end of the 1 second pulses and expressed relative to controls. Initial Kv1.5 inhibition is estimated by single point determinations done at 1 μM.

T1 sequence (P22460 whole entry): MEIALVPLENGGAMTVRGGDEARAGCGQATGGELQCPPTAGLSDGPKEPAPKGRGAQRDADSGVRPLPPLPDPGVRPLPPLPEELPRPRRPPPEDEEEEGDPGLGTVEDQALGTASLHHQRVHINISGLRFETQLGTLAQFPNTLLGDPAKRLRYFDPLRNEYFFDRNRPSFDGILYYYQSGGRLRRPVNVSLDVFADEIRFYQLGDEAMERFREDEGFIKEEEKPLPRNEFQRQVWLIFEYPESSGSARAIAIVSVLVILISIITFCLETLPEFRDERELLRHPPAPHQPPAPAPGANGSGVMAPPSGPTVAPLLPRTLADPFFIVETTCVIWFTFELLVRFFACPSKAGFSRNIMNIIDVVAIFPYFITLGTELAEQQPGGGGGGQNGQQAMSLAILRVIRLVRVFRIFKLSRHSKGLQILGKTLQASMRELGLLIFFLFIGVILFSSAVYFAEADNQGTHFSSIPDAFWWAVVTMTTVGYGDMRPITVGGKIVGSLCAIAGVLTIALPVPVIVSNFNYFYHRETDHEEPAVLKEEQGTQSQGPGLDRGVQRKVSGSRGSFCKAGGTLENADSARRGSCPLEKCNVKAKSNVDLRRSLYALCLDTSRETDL

COc1ccc(CCN2C(=O)N(NS(C)(=O)=O)CC2c2ccc(OC(C)C)cc2)cc1 (stereo not shown) [Compound 14, 1-(Methylsulfonylamino)-3-[2-(4-methoxyphenyl)ethyl]-4-[(4-isopropyloxy)-phenyl]-2-imidazolidinone] was tested, and the “Kv1.5% inhibition @ 1.0 μM” value was 28%.

Going from COc1ccc(CCN2C(=O)N(NS(=O)(=O)C(F)(F)F)CC2c2ccc(C(C)(C)C)cc2)cc1 (stereo not shown) [Compound 148, N-{4-(4-tert-butylphenyl)-3-[2-(4-methoxyphenyl)ethyl]-2-oxoimidazolidin-1-yl}-1,1,1-trifluoromethanesulfonamide] to CN(C)CCOc1ccc(CCN2C(=O)N(NS(C)(=O)=O)CC2c2ccc(C(C)(C)C)cc2)cc1 (stereo not shown) [Compound 118, N-[4-(4-tert-butylphenyl)-3-(2-{4-[2-(dimethylamino)ethoxy]phenyl}ethyl)-2-oxoimidazolidin-1-yl]methanesulfonamide], the inhibition at 1 µM rises from 2% to 9%.

Compared with COc1ccc(CCN2C(=O)N(N3CCN(C(N)=O)CC3)CC2c2ccc(C(C)(C)C)cc2)cc1 (stereo not shown) [Compound 150, 4-{4-(4-tert-butylphenyl)-3-[2-(4-methoxyphenyl)ethyl]-2-oxoimidazolidin-1-yl}piperazine-1-carboxamide], COc1ccc(CCN2C(=O)N(N3CCNCC3)CC2c2ccc(C(C)(C)C)cc2)cc1 (stereo not shown) [Compound 112, 4-(4-tert-butylphenyl)-3-[2-(4-methoxyphenyl)ethyl]-1-piperazin-1-ylimidazolidin-2-one] is lower in inhibition at 1 µM: 17% for the first, 8% for the second.

Going from COc1ccc(CCN2C(=O)N(NS(=O)(=O)c3cccnc3)CC2c2ccc(OC)cc2)cc1 (stereo not shown) [Compound 62, 1-[(Pyridin-3-yl)sulfonylamino]-3-[2-(4-methoxyphenyl)ethyl]-4-(4-methoxyphenyl)-2-imidazolidinone] to COc1ccc(CCN2C(=O)N(NS(=O)(=O)CC#N)CC2c2ccc(OC)cc2)cc1 (stereo not shown) [Compound 41, 1-(Cyanomethylsulfonylamino)-3-[2-(4-methoxyphenyl)ethyl]-4-[(4-methoxy)-phenyl]-2-imidazolidinone], the inhibition at 1 µM rises from 26% to 42%.

Compared with COc1ccc(CCN2C(=O)N(N)CC2C2(c3ccc(F)cc3)CC2)cc1 (stereo not shown) [Compound 163, 1-amino-4-[1-(4-fluorophenyl)cyclopropyl]-3-[2-(4-methoxyphenyl)ethyl]imidazolidin-2-one], COc1ccc(CCN2C(=O)N(NS(C)(=O)=O)CC2C2(c3ccccc3)CC2)cc1 (stereo not shown) [Compound 140, N-{3-[2-(4-methoxyphenyl)ethyl]-2-oxo-4-(1-phenylcyclopropyl)imidazolidin-1-yl}methanesulfonamide] is lower in inhibition at 1 µM: 16% for the first, 6% for the second.

First: COc1ccc(CCN2C(=O)N(NS(=O)(=O)CC(=O)NCC3CC3)C[C@H]2c2ccc(OC)cc2)cc1 [Compound 136, N-(cyclopropylmethyl)-2-({(4R)-4-(4-methoxyphenyl)-3-[2-(4-methoxyphenyl)ethyl]-2-oxoimidazolidin-1-yl}sulfamoyl)acetamide]
Second: COc1ccc(CCN2C(=O)N(NS(=O)(=O)CC(=O)NC3CC3)CC2c2ccc(OC)cc2)cc1 (stereo not shown) [Compound 56, 1-[[2-(Cyclopropylamino)-2-oxoethyl]sulfonylamino]-3-[2-(4-methoxyphenyl)-ethyl]-4-(4-methoxyphenyl)-2-imidazolidinone]
The inhibition at 1 µM of the first is higher: 44% for the first, 39% for the second.

Going from COc1ccc(CCN2C(=O)N(NS(=O)(=O)CC(=O)O)CC2c2ccc(C3CC3)cc2)cc1 (stereo not shown) [Compound 174, [[[4-(4-cyclopropylphenyl)-3-[2-(4-methoxyphenyl)ethyl]-2-oxo-imidazolidin-1-yl]amino]sulfonyl]acetic acid] to COc1ccc(CCN2C(=O)N(NS(=O)(=O)CC(=O)N(C)CC(=O)N(C)C)CC2c2ccc(C3CC3)cc2)cc1 (stereo not shown) [Compound 132, 2-(N-(4-(4-cyclopropylphenyl)-3-(4-methoxyphenethyl)-2-oxoimidazolidin-1-yl)sulfamoyl)-N-(2-(dimethylamino)-2-oxoethyl)-N-methylacetamide], the inhibition at 1 µM falls from 9% to 3%.

Compared with COc1ccc(CCN2C(=O)N(NCc3ccncc3)CC2c2ccc(C(C)(C)C)cc2)cc1 (stereo not shown) [Compound 95, 1-[(Pyridin-4-ylmethyl)amino]-3-[2-(4-methoxyphenyl)ethyl]-4-(4-(tert-butyl)phenyl)-2-imidazolidinone], COc1ccc(CCN2C(=O)N(NCCn3ccnc3)CC2c2ccc(C(C)(C)C)cc2)cc1 (stereo not shown) [Compound 121, 4-(4-tert-butylphenyl)-1-{[2-(1H-imidazol-1-yl)ethyl]amino}-3-[2-(4-methoxyphenyl)ethyl]imidazolidin-2-one] is lower in inhibition at 1 µM: 43% for the first, 7% for the second.

Going from COc1ccc(CCN2C(=O)N(NC(=O)c3cnccn3)CC2c2ccc(C(C)(C)C)cc2)cc1 (stereo not shown) [Compound 147, N-{4-(4-tert-butylphenyl)-3-[2-(4-methoxyphenyl)ethyl]-2-oxoimidazolidin-1-yl}pyrazine-2-carboxamide] to COc1ccc(CCN2C(=O)N(NC(N)=O)CC2c2ccc(C)c(C)c2)cc1 (stereo not shown) [Compound 70, {2-Oxo-3-[2-(4-methoxyphenyl)ethyl]-4-(3,4-dimethylphenyl)-imidazolidin-1-yl}-urea], the inhibition at 1 µM falls from 42% to 22%.

First: COc1ccc(CCCN2C(=O)N(N)CC2c2ccc(OC)cc2)cc1 (stereo not shown) [Compound 3, 1-Amino-4-(4-methoxyphenyl)-3-[3-(4-methoxyphenyl)propyl]-2-imidazolidinone]
Second: COCCOc1ccc(C2CN(N)C(=O)N2CCc2ccc(OC)cc2)cc1 (stereo not shown) [Compound 141, 1-amino-4-[4-(2-methoxyethoxy)phenyl]-3-[2-(4-methoxyphenyl)ethyl]imidazolidin-2-one]
The inhibition at 1 µM of the first is higher: 13% for the first, 4% for the second.

Going from COc1ccc(CCN2C(=O)N(NS(C)(=O)=O)CC2c2ccc(OC)nc2)cc1 (stereo not shown) [Compound 149, N-{3-[2-(4-methoxyphenyl)ethyl]-4-(6-methoxypyridin-3-yl)-2-oxoimidazolidin-1-yl}methanesulfonamide] to COCCOc1ccc(C2CN(NS(C)(=O)=O)C(=O)N2CCc2ccc(OC)cc2)cc1 (stereo not shown) [Compound 151, N-{4-[4-(2-methoxyethoxy)phenyl]-3-[2-(4-methoxyphenyl)ethyl]-2-oxoimidazolidin-1-yl}methanesulfonamide], the inhibition at 1 µM falls from 9% to 8%.

Compared with COc1ccc(CCCN2C(=O)N(NS(=O)(=O)CS(C)(=O)=O)CC2c2ccc(OC)cc2)cc1 (stereo not shown) [Compound 126, N-{4-(4-methoxyphenyl)-3-[3-(4-methoxyphenyl)propyl]-2-oxoimidazolidin-1-yl}-1-(methylsulfonyl)methanesulfonamide], COc1ccc(C2CN(N)C(=O)N2CCc2ccc(OC(F)F)cc2)cc1 (stereo not shown) [Compound 154, 1-amino-3-{2-[4-(difluoromethoxy)phenyl]ethyl}-4-(4-methoxyphenyl)imidazolidin-2-one] is lower in inhibition at 1 µM: 46% for the first, 7% for the second.

Going from CCC1(CC)CN(NS(=O)(=O)Cc2cccnc2)C(=O)N1CCc1ccc(OC)cc1 [Compound 162, N-{4,4-diethyl-3-[2-(4-methoxyphenyl)ethyl]-2-oxoimidazolidin-1-yl}-1-pyridin-3-ylmethanesulfonamide] to COc1ccc(CCN2C(=O)N(NS(C)(=O)=O)CC2c2ccc3c(c2)OC(F)(F)O3)cc1 (stereo not shown) [Compound 16, 1-(Methylsulfonylamino)-3-[2-(4-methoxyphenyl)ethyl]-4-(2,2-difluorobenzo-[1,3]dioxol-5-yl)-2-imidazolidinone], the inhibition at 1 µM rises from 8% to 48%.
